# From US9567641B2, “Combination therapy for the treatment of cancer using an anti-C-met antibody” (SAMSUNG ELECTRONICS CO., LTD., priority 2013, dated 2017)
# Experiments:
# [1] = system: MKN45 gastric cancer cell line with acquired resistance against L3-1Y/IgG2 antibody; assay: Cell viability, CellTiter Glo, resistance-acquired cell line; assay type: cell-based; details: 72 h
# Protocol: To see whether the treatment RAF1 siRNA can overcome resistance acquired due to the repetitive treatment of an antibody, tests were carried out using MKN45 gastric cancer cell line which had been treated by L3-1Y/IgG2 antibody for 3 months or longer and acquired resistance against it. The resistance-acquired MKN45 gastric cancer cell line was prepared as follows: MKN45 cells (JCRB, JCRB0254) were treated with L3-1Y/IgG2 antibody in amounts being increased over 3 months or longer. The amount of L3-1Y/IgG2 antibody to be treated started from its initial treatment concentration of 1 ug/ml and was increased up to 10 ug/ml until resistance occurred. To confirm the acquisition of L3-1Y/IgG2 antibody resistance, the resistance-acquired clones were treated or not treated with L3-1Y/IgG2 antibody and then incubated, followed by CTG assays.
# As a control group, All Negative control siRNA (Qiagen, cat. no. 1027281) was used, and as a target siRNA, a mixture of two kinds of siRNAs (see Table 7) that had effects during the screening was used. […]
# (§1) 5000 cells of MKN45 cells which have acquired resistance against L3-1Y/IgG2 antibody were seeded onto a 96-well plate, and 24 hours after, the plate was treated with L3-1Y/IgG2 antibody and an ITGB3 inhibitor, cilengitide (Merck KGaA, EMD 121974). 72 hours later after the treatment, a change in the number of cells was measured using CellTiter Glo assay. The MKN45 cells which have acquired resistance against L3-1Y/IgG2 antibody were prepared referring to Example 4.3. Cilengitide was treated at a fixed concentration of 10 uM, and the L3-1Y/IgG2 antibody was treated by ⅕ dilution each time starting from 2 ug/ml. For comparison, the same test was conducted using L3-1Y/IgG2 antibody alone.
# as §1, with “AKT” for “ITGB3”, “MK-2206” for “cilengitide”, “& Co Inc).” for “KGaA, EMD 121974).”, “MK-2206” for “Cilengitide”, “5” for “10”
# To verify whether or not the resistance acquired by repetitive administration of anti-c-Met antibody can be overcome by BCL2L1 inhibition, L3-1Y/IgG2 antibody resistance acquired MKN45 cells, where the resistance against L3-1Y/IgG2 antibody is acquired by treating MKN45 gastric cancer cells (JCRB, JCRB0254) with the L3-1Y/IgG2 antibody for at least 3 months, were used. The L3-1Y/IgG2 antibody resistance acquired MKN45 gastric cancer cells were prepared referring to Example 4.3. […]
# [2] = system: MKN45 gastric cancer cell line; assay: Cell viability, CellTiter Glo, combination with L3-1Y/IgG2 antibody; assay type: cell-based; details: ABT-263 5 uM co-treated with L3-1Y/IgG2 0.08 ug/ml, 72 h
# [3] = system: L3-1Y/IgG2 antibody resistance acquired EBC1 lung cancer cells; assay: Cell viability, CellTiter Glo, resistance-acquired cell line; assay type: cell-based; details: ABT-263 0.5 uM co-treated with L3-1Y/IgG2 (1/5 dilutions from 2 ug/ml), 72 h
# Protocol: To verify whether or not the resistance acquired by repetitive administration of anti-c-Met antibody can be overcome by BCL2L1 inhibition, L3-1Y/IgG2 antibody resistance acquired EBC1 cells, where the resistance against L3-1Y/IgG2 antibody is acquired by treating EBC1 lung cancer cells (JCRB, JCRB0820) with the L3-1Y/IgG2 antibody for at least 3 months, were used. The L3-1Y/IgG2 antibody resistance acquired EBC1 lung cancer cells were prepared referring to Example 4.3.
# 5000 cells of the L3-1Y/IgG2 antibody resistance acquired EBC1 cells were seeded onto a 96-well plate and 24 hours after, the plate was treated with a BCL2 family inhibitor, ABT-263 (Abbott Laboratories) and 72 hours later after the antibody treatment, a change in the number of cells was measured using CellTiter Glo assay. ABT-263 was treated at a fixed concentration of 0.5 uM, and the L3-1Y/IgG2 antibody was treated by ⅕ dilution each time starting from 2 ug/ml.
# [4] = system: HCC1806 breast cancer cells; assay: Cell viability, CellTiter Glo, combination with L3-1Y/IgG2 antibody; assay type: cell-based; details: 72 h
# Protocol: The efficacy of the combination administration of ITGB3 siRNA and L3-1Y/IgG2 antibody was examined in a breast cancer cell line on which the anti-c-Met antibody alone has no effects. For this, HCC1806 (ATCC, CRL-2335) and HCC1954 (ATCC, CRL-2338) cells were used.
# As a control group, All Negative control siRNA (Qiagen, cat. no. 1027281) was used, and as a target siRNA, a mixture of two kinds of siRNAs (see Table 7) that had effects during the screening was used. Transfection was carried out by the same procedures as Example 3.1 and after 24 hours, the cultured cells were treated with L3-1Y/IgG2 antibody at 0 ug/ml, 0.016 ug/ml, 0.08 ug/ml, 0.4 ug/ml, or 2 ug/ml. 72 hours later after the treatment, 100 uL of CellTiter Glo solution (Promega, G7572) was added to each well, which was allowed to stay at a room temperature for 30 min. The number of cells was counted via luminescence signals, which were recorded using Envision 2104 Multi-label Reader (Perkin Elmer).
# To verify the effect of the combination therapy using ITGB3 inhibitor and anti-c-Met antibody in breast cancer cells on which the anti-c-Met antibody has no effects, HCC1806 (ATCC, CRL-2335) cells were used. The HCC 1806 cells are a cell line known to have high amounts of c-Met.
# as §1, with “HCC1806” for “MKN45”, “cells” for “cells which have acquired resistance against L3-1Y/IgG2 antibody”, “assay.” for “assay. The MKN45 cells which have acquired resistance against L3-1Y/IgG2 antibody were prepared referring to Example 4.3.”
# The efficacy of combination administration was examined in a breast cancer cell line on which the anti-c-Met antibody has no effects. For this, HCC1806 (ATCC, CRL-2335) cells were used.
# 5000 HCC1806 cells were seeded onto a 96-well plate and 24 hours after, the plate was treated with L3-1Y/IgG2 antibody and an AKT inhibitor, MK-2206 (Merck & Co Inc) and 72 hours later after the antibody treatment, a change in the number of cells was measured using CellTiter Glo assay. MK-2206 was treated at a fixed concentration of 10 uM, and the L3-1Y/IgG2 antibody was treated by ⅕ dilution each time starting from 2 ug/ml. For comparison, the same test was conducted using L3-1Y/IgG2 antibody alone.
# c-Met = c-Met (Homo sapiens, UniProt P08581); assay: Affinity / specificity for c-Met; assay type: binding; details: expressed scFv
# [5] = cilengitide 10 uM co-treated with L3-1Y/IgG2 (1/5 dilutions from 2 ug/ml)
# c-Met, sequence (P08581 25-1390): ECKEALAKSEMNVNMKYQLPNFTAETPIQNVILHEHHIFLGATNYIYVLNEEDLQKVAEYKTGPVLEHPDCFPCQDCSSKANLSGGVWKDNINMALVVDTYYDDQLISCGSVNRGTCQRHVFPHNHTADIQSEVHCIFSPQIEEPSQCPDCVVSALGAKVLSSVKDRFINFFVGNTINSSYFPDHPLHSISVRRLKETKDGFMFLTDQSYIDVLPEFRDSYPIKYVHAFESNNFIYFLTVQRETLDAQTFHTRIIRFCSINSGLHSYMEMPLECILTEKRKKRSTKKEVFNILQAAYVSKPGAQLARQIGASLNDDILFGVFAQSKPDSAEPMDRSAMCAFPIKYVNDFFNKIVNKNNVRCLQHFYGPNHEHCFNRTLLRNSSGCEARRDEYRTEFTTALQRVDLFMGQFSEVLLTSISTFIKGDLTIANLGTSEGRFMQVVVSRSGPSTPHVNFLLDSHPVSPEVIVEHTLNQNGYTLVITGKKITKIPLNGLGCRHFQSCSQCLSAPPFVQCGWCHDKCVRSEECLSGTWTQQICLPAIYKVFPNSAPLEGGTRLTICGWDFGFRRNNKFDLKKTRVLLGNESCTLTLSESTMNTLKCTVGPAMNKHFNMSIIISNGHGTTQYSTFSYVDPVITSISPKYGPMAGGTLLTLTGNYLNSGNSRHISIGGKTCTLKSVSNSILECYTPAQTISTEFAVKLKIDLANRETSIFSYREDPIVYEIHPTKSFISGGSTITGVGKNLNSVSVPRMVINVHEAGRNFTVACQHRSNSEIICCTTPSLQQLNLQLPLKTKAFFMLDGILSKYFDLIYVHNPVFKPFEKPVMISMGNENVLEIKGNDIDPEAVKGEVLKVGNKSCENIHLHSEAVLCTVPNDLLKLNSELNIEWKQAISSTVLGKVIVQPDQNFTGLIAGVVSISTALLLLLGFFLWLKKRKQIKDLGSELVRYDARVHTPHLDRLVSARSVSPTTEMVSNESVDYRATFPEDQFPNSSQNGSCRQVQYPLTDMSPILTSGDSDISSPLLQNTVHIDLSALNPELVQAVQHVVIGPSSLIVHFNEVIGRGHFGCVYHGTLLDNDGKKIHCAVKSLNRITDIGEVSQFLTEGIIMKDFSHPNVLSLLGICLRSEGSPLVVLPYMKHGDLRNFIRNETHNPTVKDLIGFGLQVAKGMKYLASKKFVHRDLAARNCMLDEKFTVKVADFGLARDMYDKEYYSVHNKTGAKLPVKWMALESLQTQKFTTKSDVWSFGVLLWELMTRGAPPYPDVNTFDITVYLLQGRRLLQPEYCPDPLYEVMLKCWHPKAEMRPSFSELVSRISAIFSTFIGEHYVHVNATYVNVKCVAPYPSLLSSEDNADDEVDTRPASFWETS
molecule,measurement,setting,value
"CC1(C)CCC(c2ccc(Cl)cc2)=C(CN2CCN(c3ccc(C(=O)NS(=O)(=O)c4ccc(N[C@H](CCN5CCOCC5)CSc5ccccc5)c(S(=O)(=O)C(F)(F)F)c4)cc3)CC2)C1 [ABT-263, 4-[4-[[2-(4-Chlorophenyl)-5,5-dimethyl-1-cyclohexen-1-yl]methyl]-1-piperazinyl]-N-[[4-[[(1R)-3-(4-morpholinyl)-1-[(phenylthio)methyl]propyl]amino]-3-[(trifluoromethyl)sulfonyl]phenyl]sulfonyl]benzamide]",cancer cell growth inhibitory effect (cell viability),[1]; ABT-263 2.5 uM co-treated with L3-1Y/IgG2 (1/5 dilutions from 2 ug/ml),can be achieved
same,growth inhibitory effect (cell viability),[2],increased compared to the case that the L3-1Y/IgG2 antibody was treated alone
same,cancer cell growth inhibitory effect (cell viability),[3],can be achieved
"NC1(c2ccc(-c3nc4ccn5c(=O)[nH]nc5c4cc3-c3ccccc3)cc2)CCC1 [MK-2206, 8-(4-(1-aminocyclobutyl)phenyl)-9-phenyl-[1,2,4]triazolo[3,4-f][1,6]naphthyridin-3(2H)-one, reference compound]",growth inhibitory effect (cell viability),[1]; MK-2206 5 uM co-treated with L3-1Y/IgG2 (1/5 dilutions from 2 ug/ml),exhibited
same,cancer cell growth inhibitory efficacy (cell viability),[4]; MK-2206 10 uM co-treated with L3-1Y/IgG2 (1/5 dilutions from 2 ug/ml),exhibited
"CC(C)[C@H]1C(=O)N[C@@H](CCCNC(=N)N)C(=O)NCC(=O)N[C@@H](CC(=O)O)C(=O)N[C@H](Cc2ccccc2)C(=O)N1C [cilengitide, Cyclo(L-arginylglycyl-L-α-aspartyl-D-phenylalanyl-N-methyl-L-valyl), reference compound]",growth inhibitory effect (cell viability),[1]; [5],exhibited
same,growth inhibitory effect (cell viability),[4]; [5],exhibited
"scFv of huAbF46: scFv of huAbF46, VH-linker-VL, encoded by SEQ ID NO: 55 (protein) scFv: EVQLVESGGGLVQPGGSLRLSCAASGFTFTDYYMSWVRQAPGKGLEWLGFIRNKANGYTTEYSASVKGRFTISRDNSKNTLYLQMNSLRAEDTAVYYCARDNWFAYWGQGTLVTVSSGLGGLGGGGSGGGGSGGSSGVGSDIQMTQSPSSLSASVGDRVTITCKSSQSLLASGNQNNYLAWHQQKPGKAPKMLIIWASTRVSGVPSRFSGSGSGTDFTLTISSLQPEDFATYYCQQSYSAPLTFGQGTKVEIKR",specificity to c-Met,c-Met,specificity to c-Met
